Assay [1] concerns the target T1, Fatty Acid Binding Protein 4 (FABP4) (Homo sapiens, UniProt P15090).
T1 construct: purchased Cayman, Ann Arbor, Mich
The assay is described as follows: FABP4 Inhibitor/Ligand Screening Kit (fluorescence). To be noted: based on contribution across all actives, read-out: Predicted IC50. On the procedure: Fatty Acid Binding Protein 4 (FABP4) inhibition was determined using the Fatty Acid Binding Protein 4 (FABP4) Inhibitor/Ligand Screening Kit (Cayman, Ann Arbor, Mich.). […] Potential inhibitors/ligands of the FABP4 protein were incubated to FABP4 in assay buffer for 15 minutes at room temperature. Arachidonic acid was used as a known inhibitor standard for comparison. The positive control wells received no inhibitor/ligand (i.e., no arachidonic acid or extract) and the negative control wells received no FABP4. The extracts, in solution, were then exposed to a developer that will fluoresce when bound to FABP4. If FABP4 is inhibited, reduction in fluorescence yield is observed. Fluorescence was quantified using a Synergy 4 plate reader that is tuned to excitation/emission wavelengths of 370 nm and 475 nm, respectively. The fluorescence of the negative controls was subtracted from the positive control wells, and the fluorescence from the “undetected” wells was subtracted from the corresponding “detected” wells. An IC50 value was determined based on the percent fluorescence of the corrected extract wells relative to the corrected positive controls.

The next assay has as its system 3T3-L1 cells. Briefly: [1,2-3H]2-Deoxy-D-glucose (2-deoxyglucose) uptake. It is filed as cell-based. To be noted: for CPM (glucose uptake): 3T3-L1 cells. The protocol: 1. [1,2-^3H]2-Deoxy-D-glucose (2-deoxyglucose) Uptake: Cells, 3T3-L adipocytes, were grown and differentiated as described below. Prior to [^3H]2-deoxyglucose uptake, cells were switched to DMEM with 0.1% bovine serum albumin for 6 h. The [^3H]2-deoxyglucose uptake was assayed as described (D. R. Cooper, J. E. Watson, N. Patel, P. Illingworth, M. Cevedo-Duncan, J. Goodnight, C. E. Chalfant, and H. Mischak, 1999. Ectopic expression of protein kinase CbetaII, -delta, and -epsilon, but not-betaI or -zeta, provide for insulin stimulation of glucose uptake in NIH-3T3 cells. Arch. Biochem. Biophys., 372:69-79; T. P Ciraldi, O. G. Kolterman, and J. M. Olesky, 1981. Mechanism of the postreceptor defect in insulin action in human obesity: decrease in glucose transport system activity. J. Clin Invest., 68:875-880.). […] Uptake was measured by the addition of 10 nmol of [^3H] 2-deoxyglucose (50-150 μCi/μmol) and followed by incubation for 6 min at 37° C. The uptake was terminated by aspiration of media and cell monolayers were washed three times with cold DPBS. Cells were lysed with 1 ml of 1% (w/v) SDS, and radioactivity determined by liquid scintillation counting. The 2-Deoxyglucose uptake refers to transport of the analogue across the plasma membrane operating in tandem with its phosphorylation by hexokinase.

Setting [2] is: range across SRB Extracts 1 to 14.

pIC50: −log10 of the molar value. Like-named read-outs stand apart in the source and are kept apart here.

T1 sequence (P15090 whole entry, species assumed): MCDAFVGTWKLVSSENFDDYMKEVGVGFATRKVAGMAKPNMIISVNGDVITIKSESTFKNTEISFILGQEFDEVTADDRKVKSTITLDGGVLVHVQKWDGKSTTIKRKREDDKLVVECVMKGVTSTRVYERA

Regarding `CC(=O)CC/C=C(\C)CC/C=C(\C)CC/C=C(\C)CC/C=C(\C)CC/C=C(\C)CC/C=C(\C)CC/C=C(\C)CCC=C(C)C` [Bombiprenone], the pIC50 (commonly the IC50 on a negative log10 scale, so that one unit is a factor of ten) in assay [1] (in SRB Extract 6) was 4.58; in assay [1] (setting [2]), 4.09 to 5.16.
As to `CCCCCCCCCCCCCCCCCCCCCCCCCCCCCCOC(=O)C=Cc1ccc(O)c(O)c1` [3-(3,4-Dihydroxyphenyl)-2-propenoicacid Triacontyl ester], the figures for the pIC50 in assay [1] (in SRB Extract 6) and in assay [1] (setting [2]) were 4.53 and 3.99 to 5.10, respectively.
As for `C=C(CCC(C)C1CCC2(C)C3CCC4CC(O)CCC45CC35CCC12C)C(C)C` (centres unmarked) [14-Methyl-9,19-cycloergost-24(28)-en-3-ol], the negative logarithm of the IC50 (pIC50) in assay [1] (in SRB Extract 6) was 4.22; in assay [1] (setting [2]), 4.59 to 4.67.
In the same order, the values of `CCCCC/C=C\C/C=C\CCCCCCCC(=O)OCC(CO)OC(=O)CCCCCCC/C=C\C/C=C\CCCCC` (centres unmarked) [Glycerol 1,2-di-(9Z,12Z-octadecadienoate)] are 4.61 and 4.25 to 5.31.
Take `CC1(C)CCC2(C)CCC3(C)C(=C2C1)C=CC1C2(C)CCCC(C)(C)C2CCC13C` (centres unmarked) [11,13(18)-Oleanadiene]: the negative-log IC50 (pIC50) in assay [1] (in SRB Extract 6) was 4.04; in assay [1] (setting [2]) it was 4.04 to 4.55.
With “Insulin: insulin, comparator for glucose uptake stimulation”, the “Increase over 200 nM Insulin” value in the assay on 3T3-L1 cells (50 nM insulin) and in the assay with 3T3-L1 cells (100 nM insulin) was 0.6 each time. The “Increase over Control” value with 3T3-L1 cells (50 nM insulin) was 1.1; in the assay on 3T3-L1 cells (100 nM insulin) it was 1.2; with 3T3-L1 cells (200 nM insulin), 2.0. The “Max CPM” value in the assay with 3T3-L1 cells (50 nM insulin) amounted to 149 CPM; with 3T3-L1 cells (100 nM insulin), 157 CPM; in the assay on 3T3-L1 cells (200 nM insulin), 266 CPM. For the same molecule, the “CPM (glucose uptake)” value in the assay on 3T3-L1 cells (insulin 50 nM) amounted to 149 CPM; in the assay on 3T3-L1 cells (insulin 100 nM), 157 CPM; with 3T3-L1 cells (insulin 200 nM), 266 CPM.
Turning to `CC1CCC2(C)CCC3(C)C(=CCC4C5(C)CCCC(C)C5CCC43C)C2C1C` (centres unmarked) [24-Nor-12-ursene], the negative logarithm of the IC50 (pIC50) in assay [1] (in SRB Extract 6) is 3.70; in assay [1] (setting [2]), 3.80 to 4.76.
The corresponding values for `CC[C@H]1CC[C@H]2[C@@H]3CC(O)C4CC(O)C(O)C[C@]4(C)[C@H]3CC[C@]12C` (some centres unmarked) [Pregnane-2,3,6-triol] are 4.16 and 4.09 to 4.35.
Regarding `CCCCCCCCCCCC/C=C\CC/C=C\CC[C@@H](O)[C@H](O)CCCCCCCCCCC1=C[C@H](C)OC1=O` [Montecristin], the negative-log IC50 (pIC50) in assay [1] (in SRB Extract 6) was 4.40; in assay [1] (setting [2]) it was 4.16 to 4.76.
As for `CCCCCCCCC=CCCCCCCCC1CC(O)C(=O)O1` (centres unmarked) [5-(8-Heptadecenyl)dihydro-3-hydroxy-2(3H)-furanone], the negative logarithm of the IC50 (pIC50) in assay [1] (in SRB Extract 6) was 4.01; in assay [1] (setting [2]), 3.93 to 4.41.
The corresponding values for “4,5-Dihydro-4-hydroxy-5-methyl-2-tetradecyl-2(3H)-furanone” are 4.13 and 4.07 to 4.21.
Turning to 24-Nor-4(23),9(11)-fernadiene, in assay [1] (setting [2]), the pIC50 is 4.21 to 4.52.
